The text below walks through data of US20060134195A1, “Mannose-based fast dissolving tablets” (priority 2002, published 2006).

Series [1] is described as follows: Tablet strength graded 1-5 by hand and by dropping the tablet. Type of series: physicochemical. Also on record: key: strength grade on a 1-5 scale. The procedure:
(§1) A variety of candidate materials were used to make compressed tablets, and the tablet properties, such as strength and disintegration time, were examined. Particles of each material were compressed under different pressure by a Carver press. The hardness of the tablet was tested by hand for initial qualitative measurement and also by dropping the tablet from a certain height onto the laboratory bench top or to the floor. The tablet strength was graded by assigning a number ranging from 1-5. […] Each tablet was placed into 5 mL water and observed for 30 seconds to see if it disintegrated and dissolved in that time period.

The nature of series [2]: Tablet placed into 5 mL water and observed for 30 seconds for disintegration and dissolution. Type of series: physicochemical. The procedure: as §1
Setting [3] is: compression pressure 35.1 MPa, 5 mL water, 30 seconds.
The mark [4] stands for this setting: compression pressure 105 MPa, 5 mL water, 30 seconds.
The mark [5] stands for this setting: compression pressure 70.2 MPa, 5 mL water, 30 seconds.
The mark [6] stands for this setting: summary of the materials survey, pressure not stated.

Several values for one entry are separate records, joined by “and”; a condition that tells them apart may be missing. Equal entries are not always repeated. Where two headings read alike, the source gives them in different places.

For `CC(=O)Oc1ccccc1C(=O)O` [Aspirin, reference compound], the “Tablet Strength” value in series [1] (compression pressure 35.1 MPa) is recorded as 2; in series [1] (compression pressure 70.2 MPa), 3; in series [1] (compression pressure 105 MPa), 4.

In the case of `OC[C@H]1O[C@@H]2O[C@H]3[C@H](O)[C@@H](O)[C@@H](O[C@H]4[C@H](O)[C@@H](O)[C@@H](O[C@H]5[C@H](O)[C@@H](O)[C@@H](O[C@H]6[C@H](O)[C@@H](O)[C@@H](O[C@H]7[C@H](O)[C@@H](O)[C@@H](O[C@H]8[C@H](O)[C@@H](O)[C@@H](O[C@H]1[C@H](O)[C@H]2O)O[C@@H]8CO)O[C@@H]7CO)O[C@@H]6CO)O[C@@H]5CO)O[C@@H]4CO)O[C@@H]3CO` [Beta-Cyclodextrin], the “Tablet Strength” value in series [1] (compression pressure 35.1 MPa) and in series [1] (compression pressure 105 MPa) was 4 in each case. Also, the “Disintegration Characteristics” value in series [2] (setting [3]) and in series [2] (setting [4]) was “No disintegration” in each case.

Take `Cn1c(=O)c2c(ncn2C)n(C)c1=O` [Caffeine, reference compound]: the “Tablet Strength” value in series [1] (compression pressure 35.1 MPa) was 3; in series [1] (compression pressure 70.2 MPa), 4. Besides, the “Disintegration Characteristics” value in series [2] (setting [5]) is on record as “Breaking into particles after 20 sec”.

Take `CC(=O)[O-].CC(=O)[O-].[Ca+2]` [Calcium Acetate]: in series [1], the “Tablet Strength” value is listed as 4. The “Disintegration Characteristics” value in series [2] is listed as “No disintegration”.

As to `O=C([O-])[O-].[Ca+2]` [Calcium Carbonate], the “Tablet Strength” value in series [1] turned out to be 2. For the same compound, in series [2], the “Disintegration (screening summary)” value is “fast disintegration”.

As to `[Ca+2].[Cl-].[Cl-]` [Calcium Chloride], the “Tablet Strength” value in series [1] was determined as 4.

In the case of `O=P([O-])(O)O.O=P([O-])(O)O.[Ca+2]` [Calcium Phosphate, Monobasic], the “Tablet Strength” value in series [1] (compression pressure 105 MPa) is listed as 3.

Consider `O=P([O-])([O-])O.[Ca+2]` [DITAB, Calcium Phosphate, Dibasic], for which the “Tablet Strength” value in series [1] (compression pressure 70.2 MPa) came out at 4. Moreover, the “Disintegration (screening summary)” value in series [2] (setting [6]) is recorded as “fast disintegration”.

As to `N[C@@H](CCC(=O)O)C(=O)O` [Glutamic acid], the “Tablet Strength” value in series [1] (compression pressure 105 MPa) stood at 3. The “Disintegration (screening summary)” value in series [2] (setting [6]) is given as “fast disintegration”.

As for `NCC(=O)O` [Glycine], the “Tablet Strength” value in series [1] (compression pressure 105 MPa) is 2. For the same compound, in series [2] (setting [6]), the “Disintegration (screening summary)” value was “fast disintegration”.

As for `CC(C)Cc1ccc(C(C)C(=O)O)cc1` (stereo not shown) [Ibuprofen, reference compound], the “Tablet Strength” value in series [1] (compression pressure 70.2 MPa) is recorded as 3.

For the compound `O.OC[C@H]1O[C@@H](O[C@H]2[C@H](O)[C@@H](O)C(O)O[C@@H]2CO)[C@H](O)[C@@H](O)[C@H]1O` (stereo partly shown) [Lactose monohydrate], in series [1] (compression pressure 70.2 MPa), the “Tablet Strength” value is 3.

In the case of `OC[C@H]1O[C@H](O[C@H]2[C@H](O)[C@@H](O)[C@H](O)O[C@@H]2CO)[C@H](O)[C@@H](O)[C@@H]1O` [Maltose], in series [1] (compression pressure 70.2 MPa), the “Tablet Strength” value came out at 3. The “Disintegration Characteristics” value in series [2] (setting [5]) is reported as “Total disintegration of the entire tablet”. For the same compound, the “Disintegration (screening summary)” value in series [2] (setting [6]) is reported as “fast disintegration”.

With `OC[C@@H](O)[C@@H](O)[C@H](O)[C@H](O)CO` [Mannitol], the “Tablet Strength” value in series [1] (compression pressure 70.2 MPa) turned out to be 2.

For `O=C(O)c1ccccc1O` [Salicylic Acid], the “Tablet Strength” value in series [1] (compression pressure 35.1 MPa) is recorded as 1; in series [1] (compression pressure 70.2 MPa), 2; in series [1] (compression pressure 105 MPa), 2. Moreover, the “Disintegration Characteristics” value in series [2] (setting [5]) and in series [2] (setting [4]) was “No disintegration” throughout.

As for `O=C([O-])[O-].[Na+].[Na+]` [Sodium Carbonate], the “Tablet Strength” value in series [1] was 4 and 3. In series [2], the “Disintegration Characteristics” value is “No disintegration”.

Regarding `[Cl-].[Na+]` [Sodium Chloride], the “Tablet Strength” value in series [1] (compression pressure 70.2 MPa) and in series [1] (compression pressure 105 MPa) was 2 throughout. Further, the “Disintegration Characteristics” value in series [2] (setting [5]) and in series [2] (setting [4]) was “No disintegration” throughout.

Consider `O=C1NS(=O)(=O)c2ccccc21.[Na]` [Sodium Saccharin], for which the “Tablet Strength” value in series [1] (compression pressure 35.1 MPa) turned out to be 1; in series [1] (compression pressure 70.2 MPa) it was 2; in series [1] (compression pressure 105 MPa) it was 2. The “Disintegration Characteristics” value in series [2] (setting [3]), in series [2] (setting [5]) and in series [2] (setting [4]) was “Instant disintegration” each time. Besides, the “Disintegration (screening summary)” value in series [2] (setting [6]) is “fast disintegration”.

For the compound `OC[C@H]1O[C@@](CO)(O[C@H]2O[C@H](CO)[C@@H](O)[C@H](O)[C@H]2O)[C@@H](O)[C@@H]1O` [Sucrose], the “Tablet Strength” value in series [1] (compression pressure 70.2 MPa) and in series [1] (compression pressure 91.3 MPa) was 2 in each case. In series [2] (compression pressure 91.3 MPa, 5 mL water, 30 seconds), the “Disintegration Characteristics” value was “No improvement”.

Consider `Cn1c(=O)c2[nH]cnc2n(C)c1=O` [Theophyline, reference compound], for which the “Disintegration Characteristics” value in series [2] (setting [3]), in series [2] (setting [5]) and in series [2] (setting [4]) was “No disintegration” throughout.

As for `CC(=O)[O-].CC(=O)[O-].[Zn+2]` [Zinc Acetate], the “Tablet Strength” value in series [1] worked out at 3. In addition, the “Disintegration Characteristics” value in series [2] is listed as “No disintegration”.

Calcium Gluconate: in series [1] (compression pressure 35.1 MPa), the “Tablet Strength” value came out at 4.
